Measured values as given in article PMC9421656, “Beyond Retigabine: Design, Synthesis, and Pharmacological Characterization of a Potent and Chemically Stable Neuronal Kv7 Channel Activator with Anticonvulsant Activity” (Journal of Medicinal Chemistry, 2022).

Tests used:
[1] = Plasma concentration-time course and half-life in rats; conditions: Sprague-Dawley, rat, in vivo, ip, 3 mg/kg
Method: The drug half-lives were calculated using GraphPad Prism 8.0.2 (GraphPad Software, LaJolla, CA).
Returning to 40% B in 0.10 min. The flow rate was set at 0.5 mL/min. The column oven was set at 45 °C, and 5 μL of extract was injected. All additives and mobile phases were LCMS-grade and purchased from Merck (Milan, Italy).
The ESI was operated in positive mode. […] Interface temperature, desolvation line temperature, and heat block temperature were set, respectively, to 250, 250, and 350 °C. Nebulizing, drying (N2), and heating gas (air) were set, respectively, to 3, 10, and 10 L/min.

[2] = Chemical stability in aqueous buffer without light exposure; assay type: physicochemical; conditions: 3 h, avoiding UV light exposure
Method: […]. The reduced electron availability at N2 and N4 due to the presence of fluorine atom in position 3 of compound 60 strongly reduces also the first photo-oxidative step, thus conferring remarkable photostability.
Photostability experiments were performed by dissolving compounds in DMSO and then diluting in buffered aqueous solutions at pH 7.4 to a final concentration of 10 μM. 1 cm quartz cells, filled with the abovementioned solutions, were irradiated by a UV lamp (UV Consulting TQ 150 equipped with Duran 50 sleeve and 150 W power supply unit, Peschl, Germany) at a fixed distance of 20 cm from the UV source. Control samples were maintained at 37 °C, wrapped with aluminum foil to avoid light exposure, and used to assess chemical stability of the compounds. At predetermined intervals, aliquots were withdrawn and analyzed by UHPLC in order to assess the concentration decrease of the starting materials and the presence of the dimers usually formed by retigabine.
Photostability and chemical stability experiments were carried out on a Kinetex^TM C18 150 × 2.1 mm × 2.6 μm (100 Å) column (Phenomenex, Bologna, Italy). […] Data acquisition was set in the range 190–800 nm, and chromatograms were monitored at 224 nm to assess the decrease in concentration of the starting material, while a wavelength of 550 nm was used to eventually detect dimerization.

in vivo = test: in vivo
Method: The animals were sacrificed after 60 min, and brain and blood were collected.
For the assessment of plasmatic concentration, 20 μL of plasma was treated with 100 μL of methanol in a test tube. The tube was vortexed for 30 s. Then, the sample was centrifuged for 10 min at 14680 rpm, at 4 °C. 90 μL of supernatant was dried under nitrogen, reconstituted in 150 μL of MeOH, and then injected into the UHPLC–MS/MS.
Frozen brain tissues were lyophilized overnight, then weighed, carefully homogenized, and extracted with methanol in a 10 mg:[…] tissue:solvent ratio. The samples were vortexed for 30 s, treated in an ultrasonic bath for 5 min, and then centrifuged for 10 min at 14680 rpm, at 4 °C.
Returning to 40% B in 0.10 min.
The ESI was operated in positive mode.

Kv7.4 channels = molecular target: T1, Kv7.4 channels (Homo sapiens, UniProt P56696); test: Whole-cell patch-clamp electrophysiology in CHO cells expressing Kv7.4; assay type: cell-based; conditions: 0.1 μM, Kv7.4 currents
T1 construct: expressed in transfected cells; host or cells: CHO cells
Method: In order to evaluate the effects of compound 60 on other Kv7 channels, its ability to activate Kv7.4 channels expressed in CHO cells was also investigated. […]. During the recording, constant perfusion of extracellular solution was maintained. The extracellular solution contained (in mM): 138 NaCl, 2 CaCl2, 5.4 KCl, 1 MgCl2, 10 glucose, and 10 HEPES, at pH 7.4, with NaOH. The pipette (intracellular) solution contained (in mM): 140 KCl, 2 MgCl2, 10 EGTA, 10 HEPES, 5 Mg^2+-ATP, at pH 7.3–7.4, with KOH. Current was recorded using an Axopatch-200A amplifier, filtered at 5 kHz, and digitized using a DigiData 1440A (Molecular Devices). The pCLAMP software (version 10.2) was used for data acquisition and analysis (Molecular Devices). To evaluate the activity of each compound on Kv7.2 + Kv7.3 currents, the cells were clamped at −80 mV and conductance–voltage curves (G/V curves; activation curves) were generated by normalizing to the maximal value of the instantaneous isopotential currents at 0 mV and expressing the normalized values as a function of the preceding voltages. Data were fit to a Boltzmann distribution of the following form: y = max/[1 + exp (V1/2 – V)/k], where V is the test potential, V1/2 is the half-activation potential, and k is the slope factor.

| Structure (SMILES) | half-life [1] | Chemical stability [2] | Kp at 1 h (in vivo; male, C57Bl/6, mouse, in vivo, ip, 1 mg/kg) | concentration at 60 min (in vivo; male, C57Bl/6, mouse, in vivo, ip, 1 mg/kg, Brain concentration) | concentration at 60 min (in vivo; male, C57Bl/6, mouse, in vivo, ip, 1 mg/kg, Plasma concentration) | Brain/plasma ratio higher than that of retigabine (in vivo; mice, 1 mg/kg i.p., 60 min) | Idrug/Icontrol (Kv7.4 channels) | ΔV1/2 (Kv7.4 channels) |
| --- | --- | --- | --- | --- | --- | --- | --- | --- |
| CCOC(=O)Nc1ccc(NCc2ccc(F)cc2)cc1N [RET, retigabine] | 2.4 h | – | – | – | – | – | – | – |
| CC(C)(C)CC(=O)Nc1ccc(NCc2ccc(C(F)(F)F)cc2)c(F)c1N [compound 60, N-(2-Amino-3-fluoro-4-((4-(trifluoromethyl)benzyl)amino)phenyl)-3,3-dimethylbutanamide] | – | showed chemical stability | 40.4 | 727000 ± 179000 ng/g | 18200 ± 3700 ng/g | 18 times | 2.5 ± 0.3 | −29.2 ± 4.4 mV |
